Read-outs that look alike come from different tables or passages of the source.
Key:
[1] = free therapeutic Cmax in humans; ref FDA-approved drug packages, PharmaPendium; cited from earlier work
[2] = tested on: hiPSC-CMs (iCell-Cardiomyocytes^2)
Description: (§1) Cells were seeded according to the instructions of the cell provider, in fibronectin-coated 48-well MEA plates (Axion Cytoview Plates, M768-tMEA-48B) at a density suited to form a monolayer (i.e., 50 K/well) and maintained in culture in a stage incubator (37°C, 5% CO2).
(§2) At least 4 h before the beginning of the baseline measurements, a full medium exchange was performed (to a final volume of 400 µL per well). Neat compounds were dissolved in 100% DMSO at a stock concentration 1000-fold the highest target concentration. […] Afterwards, these stock solutions were diluted with Maintenance medium (CDi), to 10-fold the intended concentration. The final DMSO concentration in test solutions and vehicle control was 0.1%.
(§3) Spontaneous electrical activity was recorded in hiPSC-CMs monolayers as field potentials using the Maestro Pro MEA instrument (Axion Biosystems, Atlanta, GA, United States), which allows the maintenance of accurate temperature and CO2 levels (37°C, 5% CO2). After the plate was placed in the Maestro Pro and allowed to equilibrate for about 10 min, baseline acquisition of field potential and impedance signals was initiated and lasted for 5 min each. […] As impedance measures resistance of an applied alternating current through the hiPSC-CMs monolayer, a reduction in the attachment of hiPSC-CMs to the bottom of the well due to cell death or changes in the monolayer morphology, causes a drop in the impedance signal.
The potential presence of various arrhythmic events was evaluated and noted during the data analysis.
(§4) After the acquisition of all timepoint measurements, raw data were loaded into the data analysis software Axion Cardiac Analysis Tool (V.3.2.3). […] A.csv file containing information on the FP parameters per well, per time point, was then generated and used as input to the in-house data management system (SPEcII v.3.4, Unlimit-IT, Geel, Belgium), where descriptive statistics were calculated. Summary values at different time points after compound addition are expressed as percent change from baseline and shown as mean ± standard deviation (SD).
(§5) The nonparametric Wilcoxon-Mann Whitney Test was used to compare the percent change from the baseline (Δ%) value between the group treated with the compound at a given concentration and the group treated with the DMSO at each matching time points. A two-sided test at 5% significance level was considered. […] To assess the physiological relevance of changes, a tolerance interval of DMSO experiments was calculated at each time point, for each parameter. […] TIs indicate an interval where, with a certain confidence level (1- α = 0.95), a specified proportion (p = 0.80) of percent change for DMSO data falls. The lower and upper limits based on the TI values were used as cut-offs for the interpretation of the changes. For the cytotoxicity assays, measurements of fluorescence (after background fluorescence subtraction) from wells treated with the compounds were normalized by the average value of vehicle experiments (DMSO 0.1%) to obtain a DMSO-corrected, delta/delta percent change. Experiments from each condition, as delta/delta percent, were averaged and expressed as mean ± SD. Statistical analysis was performed using a non-parametric test (Kruskal-Wallis) and each treatment condition was compared to the relative DMSO 0.1%. Differences were considered statistically significant when the p-value was smaller than 0.05.

[3] = tested on: hiPSC-CMs (iCell-Cardiomyocytes^2); assay: MEA impedance (cytotoxicity readout) in hiPSC-CMs
Description: as §1, §2, §3, §4, §5

[4] = all concentrations tested, up to 96 h

For CC(=O)Oc1ccccc1C(=O)O [Aspirin], the “Free Cmax” value [1] is listed as 11.1 µM, the “BR (beating rate), % change from baseline” value (“BR (beating rate), % change” below) ([2]; 3 µM, 72h) is listed as -10±2% and the “FPD (field-potential duration), % change from baseline” value (“FPD … % change from baseline” below) ([2]; 3 µM, 72h) is listed as 16.3±2.2%. For the same compound, the “BR (beating rate), % change” value ([2]; 3 µM, 96h) was -18±1%, the “FPD … % change from baseline” value ([2]; 3 µM, 96h) was 25.2±3.5% and the “BR (beating rate), % change” value ([2]; 3 µM, 2h) was 2±2%. For the same compound, the “FPD … % change from baseline” value ([2]; 3 µM, 2h) was 2.5±1.6%, the “BR (beating rate), % change” value ([2]; 3 µM, 24h) was 1±2% and the “FPD … % change from baseline” value ([2]; 3 µM, 24h) was 6.2±3%. For the same compound, the “BR (beating rate), % change” value ([2]; 3 µM, 48h) was -7±1%, the “FPD … % change from baseline” value ([2]; 3 µM, 48h) was 13.2±2.8% and the “BR (beating rate), % change” value ([2]; 10 µM, 2h) was 3±2%. For the same compound, the “FPD … % change from baseline” value ([2]; 10 µM, 2h) was 4±7.9%, the “BR (beating rate), % change” value ([2]; 10 µM, 24h) was 2±3% and the “FPD … % change from baseline” value ([2]; 10 µM, 24h) was 5.8±4.5%. For the same compound, the “BR (beating rate), % change” value ([2]; 10 µM, 48h) was -8±3%, the “FPD … % change from baseline” value ([2]; 10 µM, 48h) was 12.2±6.3% and the “BR (beating rate), % change” value ([2]; 10 µM, 72h) was -9±2%. For the same compound, the “FPD … % change from baseline” value ([2]; 10 µM, 72h) was 14.6±6.7%, the “BR (beating rate), % change” value ([2]; 10 µM, 96h) was -17±3% and the “FPD … % change from baseline” value ([2]; 10 µM, 96h) was 23.3±7.8%. For the same compound, the “BR (beating rate), % change” value ([2]; 30 µM, 2h) was 3±2%, the “FPD … % change from baseline” value ([2]; 30 µM, 2h) was 0.9±1.8% and the “BR (beating rate), % change” value ([2]; 30 µM, 24h) was 0±4%. For the same compound, the “FPD … % change from baseline” value ([2]; 30 µM, 24h) was 6.7±3.9%, the “BR (beating rate), % change” value ([2]; 30 µM, 48h) was -8±2% and the “FPD … % change from baseline” value ([2]; 30 µM, 48h) was 13.5±5.1%. For the same compound, the “BR (beating rate), % change” value ([2]; 30 µM, 72h) was -9±3%, the “FPD … % change from baseline” value ([2]; 30 µM, 72h) was 15.4±5% and the “BR (beating rate), % change” value ([2]; 30 µM, 96h) was -18±4%. The “FPD … % change from baseline” value ([2]; 30 µM, 96h) was 23.3±4.7%, the “BR (beating rate), % change” value ([2]; 100 µM, 2h) was 2±3% and the “FPD … % change from baseline” value ([2]; 100 µM, 2h) was 0.2±2.9%. For the same compound, the “BR (beating rate), % change” value ([2]; 100 µM, 24h) was -2±3%, the “FPD … % change from baseline” value ([2]; 100 µM, 24h) was 7.2±3.6% and the “BR (beating rate), % change” value ([2]; 100 µM, 48h) was -7±2%. The “FPD … % change from baseline” value ([2]; 100 µM, 48h) was 13.4±3%, the “BR (beating rate), % change” value ([2]; 100 µM, 72h) was -10±3% and the “FPD … % change from baseline” value ([2]; 100 µM, 72h) was 17.6±2%. The “BR (beating rate), % change” value ([2]; 100 µM, 96h) was -16±4%, the “FPD … % change from baseline” value ([2]; 100 µM, 96h) was 23.9±1.7% and the “cessation of beating, flat T-wave or arrhythmic-like events” value [2, 4] was “no cessation of beating, flat T-wave or arrhythmic-like events were detected”. The “Imp (impedance), % change from baseline” value ([3]; 3 µM, 72h) was -2±2%, the “Imp (impedance), % change from baseline” value ([3]; 3 µM, 96h) was -7±3% and the “Imp (impedance), % change from baseline” value ([3]; 3 µM, 2h) was 5±3%. The “Imp (impedance), % change from baseline” value ([3]; 3 µM, 24h) was -9±4%, the “Imp (impedance), % change from baseline” value ([3]; 3 µM, 48h) was -10±2% and the “Imp (impedance), % change from baseline” value ([3]; 10 µM, 2h) was 6±2%. For the same compound, the “Imp (impedance), % change from baseline” value ([3]; 10 µM, 24h) was -8±3%, the “Imp (impedance), % change from baseline” value ([3]; 10 µM, 48h) was -7±3% and the “Imp (impedance), % change from baseline” value ([3]; 10 µM, 72h) was -4±5%. For the same compound, the “Imp (impedance), % change from baseline” value ([3]; 10 µM, 96h) was -6±6%, the “Imp (impedance), % change from baseline” value ([3]; 30 µM, 2h) was 6±4% and the “Imp (impedance), % change from baseline” value ([3]; 30 µM, 24h) was -4±3%. For the same compound, the “Imp (impedance), % change from baseline” value ([3]; 30 µM, 48h) was -8±3%, the “Imp (impedance), % change from baseline” value ([3]; 30 µM, 72h) was -1±2% and the “Imp (impedance), % change from baseline” value ([3]; 30 µM, 96h) was -3±2%. The “Imp (impedance), % change from baseline” value ([3]; 100 µM, 2h) was 8±1%, the “Imp (impedance), % change from baseline” value ([3]; 100 µM, 24h) was -7±4% and the “Imp (impedance), % change from baseline” value ([3]; 100 µM, 48h) was -11±3%. The “Imp (impedance), % change from baseline” value ([3]; 100 µM, 72h) was -2±6%, the “Imp (impedance), % change from baseline” value ([3]; 100 µM, 96h) was -6±7% and the effect on impedance [3, 4] was “did not have a significant effect on impedance”.

Source: article PMC10364322, “Evaluation of chronic drug-induced electrophysiological and cytotoxic effects using human-induced pluripotent stem cell-derived cardiomyocytes (hiPSC-CMs)” (Frontiers in Pharmacology, 2023)
